Data: patent US20160346249A1 (priority 2012, published 2016)
Values joined by “and” are separate entries in the source; they are usually repeats but may differ in a detail not shown here. Equal entries are not always repeated. Where two headings read alike, the source gives them in different places.

Assays:
[1] = mouse, in vivo; for AUC0-24: po
[2] = 26-week rat toxicity and toxicokinetic study; assay type: in vivo; details: for Tmax / AUC(0-t) / Cmax: po; for AUC(0-t): read-out: AUC0-24; for mean body weight lower than control: end of 4-week recovery; for mean cumulative body weight gain lower: end of treatment
Protocol: A portion of the animals from each group was maintained for an additional 4-week post-treatment recovery period.
For toxicology assessment, groups comprised thirty animals of each gender. Assessments included clinical observations, body weight, and food consumption measures noted periodically during the study. […] Ophthalmic examinations were performed during Weeks 1 and 13. […] In addition, the liver, vagina, and ovaries were identified as potential target tissues and were examined microscopically for all animals from all groups at the primary and recovery necropsies. […] 10 animals of each gender from each group were held to week 30 for a 4-week post-treatment recovery period.
For the toxicokinetic studies, there were ten animals of each gender in each group.

[3] = Single dose 300 mg / 450 mg pharmacokinetic, safety and tolerability study in healthy male and female subjects; details: for renal clearance, individual subjects: listed as DOV 21,947; for CL renal: urine and plasma, renal clearance; for CL renal / Percent of Dose in Urine (0-24 hr): Mean (SD)
From the text: Fourteen subjects, divided equally between males and females, were enrolled in the study and randomized between test article (5/sex) and placebo (2/sex). […] All subjects met the inclusion and exclusion criteria for entry into the study as detailed in the protocol and signed an informed consent form.
The subjects were confined to the clinical study site from Day −1 to the morning of Day 2, when they underwent a brief physical examination, clinical laboratory tests, and a physician visit before they were discharged. On Day 7, they reported to the clinical site again and were confined to the site until the morning of Day 9. At that time, they underwent a complete physical examination, clinical laboratory tests, and a physician's visit before they were discharged from the study. All subjects were fasted overnight on Days −1 and 7 from approximately 22:00 to approximately 4 hours post-dose on Days 1 and 8, at which time they received a standard lunch.
Subjects that received the placebo (2/sex) ingested six identical looking capsules with no drug. […] Capsules on both days were ingested with 240 mL water. […] Samples were collected into lithium heparin-containing Vacutainers® and centrifuged at approximately 3000 rpm to obtain the plasma fraction. The plasma was split into two polypropylene tubes and stored at −20° C. […] The urine volumes were recorded and an aliquot was stored for drug concentration measurements.
Validated LC/MS/MS assays were used for analyses; the assay range for both analytes in plasma and urine were 5.00 to 2000 ng/mL.
Plasma concentration-time data for each subject were analyzed with WinNonlin, version 4.1 (Pharsight Corporation, Mountain View, Calif.) using a non-compartmental model. […] Plasma concentrations listed as not detected (ND) or below the lower limit of quantitation (LLOQ) were set to zero. The values of Cmax and Tmax were the observed values for each subject. AUC0-t was determined using the linear trapezoidal rule whenever the concentration data were increasing and the logarithmic trapezoidal rule any time that the concentration data were decreasing. The apparent λz was calculated as the negative slope of the log-linear terminal portion of the blood concentration-time curve using linear regression. To allow for accurate calculation of λz, a minimum of three observations, selected by WinNonlin, was used. The t½ was calculated as ln 2/λz. AUC0-t was extrapolated to infinity (AUC0-∞) as follows: AUC0-∞=AUC0-t+Clast/λz where Clast is the last quantifiable concentration. The apparent oral clearance (CL/F) was calculated as Dose/AUC0-∞. The apparent oral volume of distribution (Vz/F) was calculated as Dose/λz×AUC0-∞. The mean residence time from time zero to infinity (MRT0-∞) was calculated as AUMC0-∞/AUC0-∞.

[4] = female, Crl:CD(SD)IGS BR, rat, in vivo, 8 mg/kg/day, females, 8 mg/kg/day, Day 0
[5] = female, Crl:CD(SD)IGS BR, rat, in vivo, 25 mg/kg/day, females, 25 mg/kg/day, Day 0
[6] = female, Crl:CD(SD)IGS BR, rat, in vivo, 25 mg/kg/day, females, 25 mg/kg/day, Day 177
[7] = male, Crl:CD(SD)IGS BR, rat, in vivo, 8 mg/kg/day, males, 8 mg/kg/day, Day 0
[8] = male, Crl:CD(SD)IGS BR, rat, in vivo, 8 mg/kg/day, males, 8 mg/kg/day, Day 177
[9] = male, Crl:CD(SD)IGS BR, rat, in vivo, 25 mg/kg/day, males, 25 mg/kg/day, Day 0
[10] = male, Crl:CD(SD)IGS BR, rat, in vivo, 25 mg/kg/day, males, 25 mg/kg/day, Day 177
[11] = both, human, plasma, oral, 300 mg
[12] = both, human, plasma, oral, 450 mg
[13] = both, human, plasma, po, 300 mg
[14] = both, human, plasma, po, 450 mg
[15] = female, human, plasma, po, 300 mg
[16] = female, human, plasma, po, 450 mg
[17] = male, human, plasma, po, 300 mg
[18] = male, human, plasma, po, 450 mg
[19] = single oral 300 mg DOV 21,947 HCl IR, Female, N = 5
[20] = single oral 300 mg DOV 21,947 HCl IR, Male, N = 5
[21] = single oral 300 mg DOV 21,947 HCl IR, mean, N = 10
[22] = single oral 450 mg DOV 21,947 HCl IR, Female, N = 5
[23] = single oral 450 mg DOV 21,947 HCl IR, Male, N = 5

## Clc1ccc([C@]23CNC[C@H]2C3)cc1Cl [amitifadine, (+)-1-(3,4-dichlorophenyl)-3-azabicyclo[3.1.0]hexane]
[1]; female, Crl:CD-1(ICR) BR, 10 mg/kg/day
  AUC0-24: 2.086 µg·h/mL
[1]; female, Crl:CD-1(ICR) BR, 30 mg/kg/day
  AUC0-24: 6.474 µg·h/mL
[1]; female, Crl:CD-1(ICR) BR, 100 mg/kg/day
  AUC0-24: 26.436 µg·h/mL
[1]; male, Crl:CD-1(ICR) BR, 150 mg/kg/day, 0 study day
  twitching (animals affected): 3/10
[1]; male, Crl:CD-1(ICR) BR, 10 mg/kg/day
  AUC0-24: 1.907 µg·h/mL
[1]; male, Crl:CD-1(ICR) BR, 30 mg/kg/day
  AUC0-24: 7.25 µg·h/mL
[1]; male, Crl:CD-1(ICR) BR, 100 mg/kg/day
  AUC0-24: 40.306 µg·h/mL
[1]; male, Crl:CD-1(ICR) BR, 150 mg/kg/day
  AUC0-24: 40.248 µg·h/mL
[1]; 150 mg/kg/day
  absolute liver weight higher: 22%
  absolute lymphocyte counts lower: 54%
  percent neutrophil counts higher: 183%
  percentage lymphocyte counts lower: 31%
[2]; both sexes, Crl:CD(SD)IGS BR, rat, in vivo, oral gavage, 26 weeks
  NOAEL at 26 weeks: 8 mg/kg/day
[2]; equivalent dosages
  exposure in female vs male rats: ≤ 2 fold
[2]; female rats, 25 mg/kg/day, 26 weeks
  liver metabolic enzyme induction: inducer of CYP1A, CYP2B, CYP2E, CYP3A, and CYP4A
[2]; [4]
  Tmax: 1 h
  AUC(0-t): 9.97 µg·h/mL
[2]; female, Crl:CD(SD)IGS BR, rat, in vivo, 8 mg/kg/day, females, 8 mg/kg/day, Day 177
  Tmax: 2 h
[2]; [5]
  Cmax: 2.63 µg/mL
  Tmax: 1 h
  AUC(0-t): 23.8 µg·h/mL
[2]; [6]
  Cmax: 3.5 µg/mL
  Tmax: 1 h
  AUC(0-t): 29.7 µg·h/mL
[2]; female, Crl:CD(SD)IGS BR, rat, in vivo, […], females, […], Day 0
  Tmax: 2 h
[2]; female, Crl:CD(SD)IGS BR, rat, in vivo, […], females, […], Day 177
  Tmax: 1 h
[2]; female, Crl:CD(SD)IGS BR, rat, plasma, 8 mg/kg/day, females, 8 mg/kg/day, Day 177
  AUC(0-t): 11.1 µg·h/mL
[2]; females, 25 mg/kg/day
  mean ovary/oviduct weights higher: 12%
  mean body weight lower than control: 10%
  mean cumulative body weight gain lower: 14%
[2]; male rats, 25 mg/kg/day, 26 weeks
  liver metabolic enzyme induction: inducer of CYP1A, CYP2B, and CYP2E
[2]; [7]
  Tmax: 1 h
  AUC(0-t): 5.38 µg·h/mL
[2]; [8]
  Cmax: 0.954 µg/mL
  Tmax: 1 h
[2]; [9]
  Cmax: 2.6 µg/mL
  Tmax: 1 h
  AUC(0-t): 18.1 µg·h/mL
[2]; [10]
  Cmax: 2.6 µg/mL
  AUC(0-t): 17.8 µg·h/mL
[2]; male, Crl:CD(SD)IGS BR, rat, in vivo, […], males, […], Day 0
  Tmax: 1 h
[2]; male, Crl:CD(SD)IGS BR, rat, in vivo, […], males, […], Day 177
  Tmax: 1 h
[2]; male, Crl:CD(SD)IGS BR, rat, plasma, 8 mg/kg/day, males, 8 mg/kg/day, Day 177
  AUC(0-t): 7.13 µg·h/mL
[2]; males, 25 mg/kg/day
  mean testes weights higher: 9.5%
  mean body weight lower than control: 12%
  mean cumulative body weight gain lower: 18%
[2]; oral gavage, 26 weeks
  NOEL: 2.5 mg/kg/day
[3]; 300 mg
  ingested dose in urine (0-24 hr): 0.4%
[3]; 300 mg single oral dose
  renal clearance, individual subjects: 40.6 mL/h and 62.1 mL/h and 32.1 mL/h and 47.7 mL/h and 39.2 mL/h and 66.6 mL/h and 91.7 mL/h and 47.3 mL/h and 76.4 mL/h
[3]; 450 mg
  ingested dose in urine (0-24 hr): 0.3%
[3]; 450 mg single oral dose
  renal clearance, individual subjects: 42.2 mL/h and 31.9 mL/h and 25.4 mL/h and 22.3 mL/h and 40.1 mL/h and 34.1 mL/h and 32.1 mL/h and 79.2 mL/h and 33.7 mL/h and 47.3 mL/h
[3]; 300 and 450 mg
  oral clearance: 13.2 to 13.6 L/h
[3]; [11]
  Cmax: 3.37 µg/mL
  Tmax: 2.15 h
[3]; [12]
  Cmax: 5.11 µg/mL
  MRT: 6.3 to 6.4 h
  Tmax: 2.43 h
[3]; both, human, plasma, oral, 450 mg, elimination half-life, 300 and 450 mg
  half-life: ~4 h
[3]; [13]
  AUC(0-inf): 19.7 µg·h/mL
  AUC(0-t): 19.4 µg·h/mL
  Cmax: 3.37 µg/mL
  MRT inf: 6.29 h
  Tmax: 2.15 h
[3]; both, human, plasma, po, 300 mg, t½ (Harmonic mean), single oral 300 mg DOV 21,947 HCl IR, N = 10
  half-life: 4.2 h
[3]; both, human, plasma, po, 300 mg, t½, single oral 300 mg DOV 21,947 HCl IR, arithmetic mean, N = 10
  half-life: 4.24 h
[3]; [14]
  AUC(0-inf): 30.5 µg·h/mL
  AUC(0-t): 30 µg·h/mL
  Cmax: 5.11 µg/mL
  MRT inf: 6.39 h
  Tmax: 2.43 h
[3]; both, human, plasma, po, 450 mg, t½ (Harmonic mean), single oral 450 mg DOV 21,947 HCl IR, N = 10
  half-life: 3.77 h
[3]; both, human, plasma, po, 450 mg, t½, single oral 450 mg DOV 21,947 HCl IR, arithmetic mean, N = 10
  half-life: 3.82 h
[3]; both, human, po, 300 mg, 300 mg single oral dose
  CL renal: 0.943 mL/min
[3]; both, human, po, 450 mg, 450 mg single oral dose
  CL renal: 0.647 mL/min
[3]; [15]
  AUC(0-inf): 20.5 µg·h/mL
  AUC(0-t): 20.1 µg·h/mL
  Cmax: 3.26 µg/mL
  MRT inf: 6.51 h
  Tmax: 2.7 h
[3]; female, human, plasma, po, 300 mg, t½ (Harmonic mean), single oral 300 mg DOV 21,947 HCl IR, N = 5
  half-life: 4.1 h
[3]; female, human, plasma, po, 300 mg, t½, single oral 300 mg DOV 21,947 HCl IR, N = 5, arithmetic mean
  half-life: 4.14 h
[3]; [16]
  AUC(0-inf): 29.9 µg·h/mL
  AUC(0-t): 29.5 µg·h/mL
  Cmax: 4.54 µg/mL
  MRT inf: 6.42 h
  Tmax: 3 h
[3]; female, human, plasma, po, 450 mg, t½ (Harmonic mean), single oral 450 mg DOV 21,947 HCl IR, N = 5
  half-life: 3.57 h
[3]; female, human, plasma, po, 450 mg, t½, single oral 450 mg DOV 21,947 HCl IR, N = 5, arithmetic mean
  half-life: 3.58 h
[3]; [17]
  AUC(0-inf): 19 µg·h/mL
  AUC(0-t): 18.6 µg·h/mL
  Cmax: 3.48 µg/mL
  MRT inf: 6.07 h
  Tmax: 1.6 h
[3]; male, human, plasma, po, 300 mg, t½ (Harmonic mean), single oral 300 mg DOV 21,947 HCl IR, N = 5
  half-life: 4.31 h
[3]; male, human, plasma, po, 300 mg, t½, single oral 300 mg DOV 21,947 HCl IR, N = 5, arithmetic mean
  half-life: 4.34 h
[3]; [18]
  AUC(0-inf): 31.1 µg·h/mL
  AUC(0-t): 30.5 µg·h/mL
  Cmax: 5.67 µg/mL
  MRT inf: 6.35 h
  Tmax: 1.85 h
[3]; male, human, plasma, po, 450 mg, t½ (Harmonic mean), single oral 450 mg DOV 21,947 HCl IR, N = 5
  half-life: 4 h
[3]; male, human, plasma, po, 450 mg, t½, single oral 450 mg DOV 21,947 HCl IR, N = 5, arithmetic mean
  half-life: 4.06 h
[3]; [19]
  CL/F: 13.0 L/h
  λz: 0.169 h⁻¹
[3]; [20]
  CL/F: 14.2 L/h
  λz: 0.161 h⁻¹
[3]; single oral 300 mg DOV 21,947 HCl IR
  Percent of Dose in Urine (0-24 hr): 0.411 (0.121) Percent of Dose
[3]; single oral 300 mg DOV 21,947 HCl IR, Period 0-1 hr
  Mean Amount in Urine: 17.0 µg
[3]; single oral 300 mg DOV 21,947 HCl IR, Period 1-2 hr
  Mean Amount in Urine: 115 µg
[3]; single oral 300 mg DOV 21,947 HCl IR, Period 2-4 hr
  Mean Amount in Urine: 279 µg
[3]; single oral 300 mg DOV 21,947 HCl IR, Period 4-8 hr
  Mean Amount in Urine: 371 µg
[3]; single oral 300 mg DOV 21,947 HCl IR, Period 8-12 hr
  Mean Amount in Urine: 137 µg
[3]; single oral 300 mg DOV 21,947 HCl IR, Period 12-24 hr
  Mean Amount in Urine: 115 µg
[3]; single oral 300 mg DOV 21,947 HCl IR, Total (0-24 hr)
  Mean Amount in Urine: 1064 µg
[3]; [21]
  CL/F: 13.6 L/h
  λz: 0.165 h⁻¹
[3]; [22]
  CL/F: 13.7 L/h
  λz: 0.194 h⁻¹
[3]; [23]
  CL/F: 12.8 L/h
  λz: 0.173 h⁻¹
[3]; single oral 450 mg DOV 21,947 HCl IR
  Percent of Dose in Urine (0-24 hr): 0.299 (0.143) Percent of Dose
[3]; single oral 450 mg DOV 21,947 HCl IR, Period 0-1 hr
  Mean Amount in Urine: 9.4 µg
[3]; single oral 450 mg DOV 21,947 HCl IR, Period 1-2 hr
  Mean Amount in Urine: 66.3 µg
[3]; single oral 450 mg DOV 21,947 HCl IR, Period 2-4 hr
  Mean Amount in Urine: 322 µg
[3]; single oral 450 mg DOV 21,947 HCl IR, Period 4-8 hr
  Mean Amount in Urine: 402 µg
[3]; single oral 450 mg DOV 21,947 HCl IR, Period 8-12 hr
  Mean Amount in Urine: 195 µg
[3]; single oral 450 mg DOV 21,947 HCl IR, Period 12-24 hr
  Mean Amount in Urine: 164 µg
[3]; single oral 450 mg DOV 21,947 HCl IR, Total (0-24 hr)
  Mean Amount in Urine: 1159 µg
[3]; single oral 450 mg DOV 21,947 HCl IR, mean, N = 10
  λz: 0.184 h⁻¹
